The values below come from PubChem BioAssay (NCI).

Test systems include HT29 colon; MOLT-4 leukemia; SK-OV-3 ovarian; OVCAR-3 ovarian; U251 CNS; 786-0 renal; PC-3 prostate; RXF 393 renal; A498 renal; NCI-H460 lung.
What all share (experiment): NCI tumour cell line growth inhibition, 48 h

“And” between values parts separate entries of the source, which are not always exact repeats. Equal values may be shown once.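 Grown in 96-well plates, cells were treated for 48 hours with each compound at five concentrations. Insufficient inhibition: endpoint recorded as highest concentration tested. Abbreviation: GI50, concentration required for 50% inhibition of growth. TGI denotes the concentration required for complete inhibition of growth.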

`O=C(O)c1cc2ccccc2c(N=Nc2c([N+](=O)[O-])cc([N+](=O)[O-])cc2S(=O)(=O)O)c1O`: the TGI in the experiment on HT29 colon, in the experiment on MOLT-4 leukemia, with SK-OV-3 ovarian, in the experiment with OVCAR-3 ovarian, in the experiment on U251 CNS and with 786-0 renal was greater than 100 µM throughout. For the same compound, the TGI in the experiment on PC-3 prostate and with RXF 393 renal was greater than 100 µM throughout.
`Cc1cc(S(=O)(=O)Nc2nc3ccsc3c(=O)n2Cc2ccco2)c(S)cc1Cl`: the GI50 in the experiment on HT29 colon was greater than 100 µM; in the experiment on MOLT-4 leukemia, 19.4 µM; in the experiment with A498 renal, greater than 100 µM; in the experiment with OVCAR-3 ovarian, greater than 100 µM; in the experiment with U251 CNS it was 96.3 µM; with NCI-H460 lung it was 60.6 µM. The GI50 in the experiment on 786-0 renal, with PC-3 prostate and in the experiment on RXF 393 renal was greater than 100 µM throughout. Also, the TGI with HT29 colon was greater than 100 µM; with MOLT-4 leukemia, 84.2 µM; in the experiment with A498 renal, greater than 100 µM; in the experiment with OVCAR-3 ovarian it was greater than 100 µM; in the experiment with U251 CNS, greater than 100 µM; in the experiment with NCI-H460 lung it was greater than 100 µM. Also, the TGI with 786-0 renal, in the experiment on PC-3 prostate and with RXF 393 renal was greater than 100 µM in each case.
Regarding `CO[C@H]1[C@H](O)[C@H](O[C@H]2CC[C@@]3(C)[C@H](CC[C@@H]4[C@@H]3CC[C@]3(C)[C@@H](C5=CC(=O)OC5)CC[C@]43O)C2)O[C@@H](C)[C@@H]1O`, the TGI with HT29 colon is 0.00148 µM; with MOLT-4 leukemia, 0.00766 µM and < 0.0265 µM; in the experiment with A498 renal, 0.0252 µM; with SK-OV-3 ovarian, 0.00245 µM and 0.0106 µM; in the experiment on OVCAR-3 ovarian it was 0.00116 µM; in the experiment with U251 CNS, 0.00385 µM and 0.0152 µM. The TGI in the experiment on NCI-H460 lung was found to be 0.00151 µM; with 786-0 renal, 0.000687 µM; with PC-3 prostate it was 0.524 µM. Moreover, in the experiment on PC-3 prostate, the GI50 is 0.00525 µM.
With `N#Cc1c[nH]n2ccnc12`, the TGI with HT29 colon, in the experiment on MOLT-4 leukemia, in the experiment with A498 renal, with SK-OV-3 ovarian, with OVCAR-3 ovarian and in the experiment on U251 CNS was greater than 100 µM in each case. In addition, the TGI in the experiment with NCI-H460 lung, in the experiment on 786-0 renal and with PC-3 prostate was greater than 100 µM each time.
As for `O=C1/C(=C/c2ccccc2)SC(=Nc2ccccc2)N1Nc1ccccc1`, the GI50 in the experiment with HT29 colon is 10.8 µM; with MOLT-4 leukemia, 5.14 µM; with SK-OV-3 ovarian, 24.4 µM; with OVCAR-3 ovarian it was 10.2 µM; in the experiment on U251 CNS, 12.9 µM; with NCI-H460 lung, 15.9 µM. Moreover, the GI50 is 6.57 µM in the experiment on 786-0 renal, 4.49 µM with PC-3 prostate and 8.44 µM in the experiment with RXF 393 renal. Moreover, the TGI in the experiment on HT29 colon was greater than 100 µM; in the experiment with MOLT-4 leukemia, greater than 100 µM; in the experiment with SK-OV-3 ovarian it was greater than 100 µM; in the experiment with OVCAR-3 ovarian, 91.2 µM; with U251 CNS it was greater than 100 µM; with NCI-H460 lung, 57.3 µM. The values for the TGI in the experiment with 786-0 renal, with PC-3 prostate and in the experiment on RXF 393 renal were greater than 100 µM, greater than 100 µM and 30 µM, respectively.
Consider `COc1ccc(/C=C(/C(=O)N2CCCC2)c2cc(OC)c(OC)c(OC)c2)cc1N`, for which the GI50 in the experiment on HT29 colon was 2.3 µM; with MOLT-4 leukemia, 4.74 µM; in the experiment with A498 renal, 1.26 µM; in the experiment with SK-OV-3 ovarian, 2.78 µM; with OVCAR-3 ovarian, 0.992 µM; in the experiment with U251 CNS, 4.18 µM. In addition, the GI50 in the experiment on NCI-H460 lung is 2.96 µM; in the experiment on 786-0 renal, 2.7 µM; in the experiment with PC-3 prostate, 2.1 µM. Also, the TGI was greater than 100 µM in the experiment on HT29 colon; greater than 100 µM in the experiment on MOLT-4 leukemia; greater than 100 µM in the experiment on A498 renal; greater than 100 µM with SK-OV-3 ovarian; 6.34 µM in the experiment on OVCAR-3 ovarian; greater than 100 µM in the experiment with U251 CNS. For the same compound, the TGI with NCI-H460 lung, in the experiment on 786-0 renal and in the experiment on PC-3 prostate was greater than 100 µM throughout.
Consider `N#C/C(=C\c1ccc(Br)cc1)n1nnc2cccc(F)c21`, for which the GI50 was 2.04 µM in the experiment on A498 renal; 0.861 µM with OVCAR-3 ovarian; 1.55 µM in the experiment with U251 CNS; 1.97 µM with NCI-H460 lung; 1.48 µM with 786-0 renal; 0.943 µM with PC-3 prostate. Also, in the experiment on RXF 393 renal, the GI50 is 1.08 µM. Besides, the TGI with A498 renal was found to be 4.23 µM; with OVCAR-3 ovarian it was 2.15 µM; in the experiment with U251 CNS, 3.06 µM; in the experiment with NCI-H460 lung it was 4.21 µM; in the experiment with 786-0 renal, 2.93 µM; in the experiment on PC-3 prostate, 3.17 µM. In addition, the TGI in the experiment on RXF 393 renal came to 2.64 µM.
Turning to `COc1ncc(-c2nc3c(n2C(C)C)[C@H](c2ccc(Cl)cc2)N(c2cc(Cl)cn(C)c2=O)C3=O)c(OC)n1`, the GI50 with HT29 colon was 41.7 µM; with MOLT-4 leukemia it was 12.4 µM; in the experiment with A498 renal it was 19.2 µM; in the experiment on SK-OV-3 ovarian it was 40.4 µM; in the experiment with OVCAR-3 ovarian, 46 µM; with U251 CNS it was 40.5 µM. Also, the GI50 with NCI-H460 lung is 22.8 µM; with 786-0 renal it was 67.5 µM; with PC-3 prostate it was 20.2 µM. Besides, the TGI in the experiment on HT29 colon is greater than 100 µM; with MOLT-4 leukemia, 39.6 µM; in the experiment on A498 renal, 84.6 µM; with SK-OV-3 ovarian, greater than 100 µM; in the experiment with OVCAR-3 ovarian, greater than 100 µM; with U251 CNS, greater than 100 µM. For the same compound, the TGI in the experiment with NCI-H460 lung, with 786-0 renal and in the experiment on PC-3 prostate was greater than 100 µM throughout.
For `COC(=O)c1c2c(c(C)[n+]([O-])c1C)C(=O)C=C(NCc1cccc(OC)c1)C2=O`, the GI50 with HT29 colon is 0.37 µM; in the experiment with MOLT-4 leukemia, 1.09 µM; in the experiment on A498 renal it was 1.31 µM; with OVCAR-3 ovarian, 0.257 µM; with U251 CNS it was 0.646 µM; with 786-0 renal, 1.88 µM. Also, the GI50 with PC-3 prostate was 0.333 µM; with RXF 393 renal it was 1.27 µM. Also, the TGI in the experiment on HT29 colon was 1.54 µM; in the experiment with MOLT-4 leukemia it was 3.54 µM; in the experiment on A498 renal it was 2.59 µM; in the experiment with OVCAR-3 ovarian, 0.743 µM; with U251 CNS, 2.08 µM; with 786-0 renal it was 4.85 µM. The figures for the TGI in the experiment on PC-3 prostate and with RXF 393 renal were 2.73 µM and 2.63 µM, respectively.
